Source: paper PMC8909834, “An Orally Bioavailable and Highly Efficacious Inhibitor of CDK9/FLT3 for the Treatment of Acute Myeloid Leukemia” (Cancers, 2022)

Tests used:
Assay in all cases: Kinase Hotspot radiolabel assay
Assay type in all cases: biochemical
Details in all cases: read-out: % Residual Activity
BRAF = biological target: T1, BRAF (Homo sapiens, UniProt P15056)
T1 construct: purchased Reaction Biology Corporation (Kinase HotSpot)
How it was run: (§1)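 Profiled at 1 µM compound within a 369-kinase panel using a radiolabel Hotspot format. Ki values were then determined for kinases showing greater than 90% inhibition.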

MNK2 = biological target: T2, MNK2 (Homo sapiens, UniProt Q9HBH9)
T2 construct: purchased Reaction Biology Corporation (Kinase HotSpot)
How it was run: as §1

RSK3 = biological target: T3, RSK3 (Homo sapiens, UniProt Q15349)
T3 construct: purchased Reaction Biology Corporation (Kinase HotSpot)
How it was run: as §1

OSR1/OXSR1 = biological target: T4, OSR1/OXSR1 (Homo sapiens, UniProt O95747)
T4 construct: purchased Reaction Biology Corporation (Kinase HotSpot)
How it was run: as §1

IKKb/IKBKB = biological target: T5, IKKb/IKBKB (Homo sapiens, UniProt O14920)
T5 construct: purchased Reaction Biology Corporation (Kinase HotSpot)
How it was run: as §1

SRMS = biological target: T6, SRMS (Homo sapiens, UniProt Q9H3Y6)
T6 construct: purchased Reaction Biology Corporation (Kinase HotSpot)
How it was run: as §1

WNK2 = biological target: T7, WNK2 (Homo sapiens, UniProt Q9Y3S1)
T7 construct: purchased Reaction Biology Corporation (Kinase HotSpot)
How it was run: as §1

DDR1 = biological target: T8, DDR1 (Homo sapiens, UniProt Q08345)
T8 construct: purchased Reaction Biology Corporation (Kinase HotSpot)
How it was run: as §1

GRK4 = biological target: T9, GRK4 (Homo sapiens, UniProt P32298)
T9 construct: purchased Reaction Biology Corporation (Kinase HotSpot)
How it was run: as §1

p70S6K/RPS6KB1 = biological target: T10, p70S6K/RPS6KB1 (Homo sapiens, UniProt P23443)
T10 construct: purchased Reaction Biology Corporation (Kinase HotSpot)
How it was run: as §1

MEKK1 = biological target: T11, MEKK1 (Homo sapiens, UniProt Q13233)
T11 construct: purchased Reaction Biology Corporation (Kinase HotSpot)
How it was run: as §1

AKT2 = biological target: T12, AKT2 (Homo sapiens, UniProt P31751)
T12 construct: purchased Reaction Biology Corporation (Kinase HotSpot)
How it was run: as §1

DCAMKL1 = biological target: T13, DCAMKL1 (Homo sapiens, UniProt O15075)
T13 construct: purchased Reaction Biology Corporation (Kinase HotSpot)
How it was run: as §1

FGR = biological target: T14, FGR (Homo sapiens, UniProt P09769)
T14 construct: purchased Reaction Biology Corporation (Kinase HotSpot)
How it was run: as §1

CSK = biological target: T15, CSK (Homo sapiens, UniProt P41240)
T15 construct: purchased Reaction Biology Corporation (Kinase HotSpot)
How it was run: as §1

MKK7 = biological target: T16, MKK7 (Homo sapiens, UniProt O14733)
T16 construct: purchased Reaction Biology Corporation (Kinase HotSpot)
How it was run: as §1

FAK/PTK2 = biological target: T17, FAK/PTK2 (Homo sapiens, UniProt Q05397)
T17 construct: purchased Reaction Biology Corporation (Kinase HotSpot)
How it was run: as §1

ULK2 = biological target: T18, ULK2 (Homo sapiens, UniProt Q8IYT8)
T18 construct: purchased Reaction Biology Corporation (Kinase HotSpot)
How it was run: as §1

MLK3/MAP3K11 = biological target: T19, MLK3/MAP3K11 (Homo sapiens, UniProt Q16584)
T19 construct: purchased Reaction Biology Corporation (Kinase HotSpot)
How it was run: as §1

PAK2 = biological target: T20, PAK2 (Homo sapiens, UniProt Q13177)
T20 construct: purchased Reaction Biology Corporation (Kinase HotSpot)
How it was run: as §1

c-Kit = biological target: T21, c-Kit (Homo sapiens, UniProt P10721)
T21 construct: purchased Reaction Biology Corporation (Kinase HotSpot)
How it was run: as §1

TBK1 = biological target: T22, TBK1 (Homo sapiens, UniProt Q9UHD2)
T22 construct: purchased Reaction Biology Corporation (Kinase HotSpot)
How it was run: as §1

DAPK1 = biological target: T23, DAPK1 (Homo sapiens, UniProt P53355)
T23 construct: purchased Reaction Biology Corporation (Kinase HotSpot)
How it was run: as §1

TYRO3/SKY = biological target: T24, TYRO3/SKY (Homo sapiens, UniProt Q06418)
T24 construct: purchased Reaction Biology Corporation (Kinase HotSpot)
How it was run: as §1

MKK6 = biological target: T25, MKK6 (Homo sapiens, UniProt P52564)
T25 construct: purchased Reaction Biology Corporation (Kinase HotSpot)
How it was run: as §1

PKN3/PRK3 = biological target: T26, PKN3/PRK3 (Homo sapiens, UniProt Q6P5Z2)
T26 construct: purchased Reaction Biology Corporation (Kinase HotSpot)
How it was run: as §1

NEK3 = biological target: T27, NEK3 (Homo sapiens, UniProt P51956)
T27 construct: purchased Reaction Biology Corporation (Kinase HotSpot)
How it was run: as §1

CK2a2 = biological target: T28, CK2a2 (Homo sapiens, UniProt P19784)
T28 construct: purchased Reaction Biology Corporation (Kinase HotSpot)
How it was run: as §1

MEK1 = biological target: T29, MEK1 (Homo sapiens, UniProt Q02750)
T29 construct: purchased Reaction Biology Corporation (Kinase HotSpot)
How it was run: as §1

CK2a = biological target: T30, CK2a (Homo sapiens, UniProt P68400)
T30 construct: purchased Reaction Biology Corporation (Kinase HotSpot)
How it was run: as §1

T4 sequence (O95747 whole entry): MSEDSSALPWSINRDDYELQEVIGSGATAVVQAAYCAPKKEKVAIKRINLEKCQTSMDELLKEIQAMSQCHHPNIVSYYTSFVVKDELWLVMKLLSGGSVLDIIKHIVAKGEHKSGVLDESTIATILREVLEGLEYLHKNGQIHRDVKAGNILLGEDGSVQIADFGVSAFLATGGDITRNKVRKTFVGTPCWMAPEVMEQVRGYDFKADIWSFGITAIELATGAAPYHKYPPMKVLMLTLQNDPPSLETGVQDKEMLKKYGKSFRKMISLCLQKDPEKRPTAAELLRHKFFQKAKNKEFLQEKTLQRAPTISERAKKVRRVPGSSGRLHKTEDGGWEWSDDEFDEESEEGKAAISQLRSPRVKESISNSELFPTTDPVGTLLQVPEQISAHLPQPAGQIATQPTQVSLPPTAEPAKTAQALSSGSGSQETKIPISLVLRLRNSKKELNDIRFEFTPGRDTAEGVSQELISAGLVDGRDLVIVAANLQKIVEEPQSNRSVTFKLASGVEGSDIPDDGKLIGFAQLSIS
T24 sequence (Q06418 41-890): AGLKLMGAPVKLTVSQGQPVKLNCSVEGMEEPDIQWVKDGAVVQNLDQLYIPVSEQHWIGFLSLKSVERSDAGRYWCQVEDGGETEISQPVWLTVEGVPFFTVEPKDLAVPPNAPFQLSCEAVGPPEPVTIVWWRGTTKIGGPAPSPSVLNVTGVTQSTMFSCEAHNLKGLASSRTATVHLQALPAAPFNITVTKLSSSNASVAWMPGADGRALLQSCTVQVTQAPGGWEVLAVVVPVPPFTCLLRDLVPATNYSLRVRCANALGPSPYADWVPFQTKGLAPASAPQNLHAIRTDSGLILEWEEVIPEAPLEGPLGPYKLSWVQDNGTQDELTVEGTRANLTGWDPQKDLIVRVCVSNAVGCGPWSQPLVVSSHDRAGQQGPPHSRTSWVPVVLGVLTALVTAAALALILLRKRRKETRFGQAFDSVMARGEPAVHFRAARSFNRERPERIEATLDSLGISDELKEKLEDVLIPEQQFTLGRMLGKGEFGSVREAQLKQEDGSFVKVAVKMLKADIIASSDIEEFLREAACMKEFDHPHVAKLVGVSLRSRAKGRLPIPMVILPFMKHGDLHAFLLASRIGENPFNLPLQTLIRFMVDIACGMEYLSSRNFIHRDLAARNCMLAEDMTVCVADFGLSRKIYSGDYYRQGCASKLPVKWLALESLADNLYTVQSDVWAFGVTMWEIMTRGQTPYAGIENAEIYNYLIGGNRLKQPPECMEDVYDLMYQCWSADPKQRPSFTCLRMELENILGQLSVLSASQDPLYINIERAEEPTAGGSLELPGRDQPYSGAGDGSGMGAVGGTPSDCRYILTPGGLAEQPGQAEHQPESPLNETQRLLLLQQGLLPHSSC
T10 sequence (P23443 whole entry): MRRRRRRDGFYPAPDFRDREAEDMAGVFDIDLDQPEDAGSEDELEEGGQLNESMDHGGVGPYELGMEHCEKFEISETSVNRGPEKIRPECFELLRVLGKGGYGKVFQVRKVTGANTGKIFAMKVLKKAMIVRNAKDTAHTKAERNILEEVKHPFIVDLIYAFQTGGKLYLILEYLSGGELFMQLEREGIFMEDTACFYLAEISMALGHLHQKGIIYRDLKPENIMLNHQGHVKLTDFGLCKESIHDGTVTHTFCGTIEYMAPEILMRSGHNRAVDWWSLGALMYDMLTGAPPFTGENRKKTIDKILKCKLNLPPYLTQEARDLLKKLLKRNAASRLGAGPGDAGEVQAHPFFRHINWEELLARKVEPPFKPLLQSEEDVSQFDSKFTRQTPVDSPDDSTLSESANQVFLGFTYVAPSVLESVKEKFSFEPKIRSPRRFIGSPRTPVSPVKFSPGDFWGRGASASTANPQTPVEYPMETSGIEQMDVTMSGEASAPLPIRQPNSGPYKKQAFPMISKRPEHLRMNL
T2 sequence (Q9HBH9 whole entry): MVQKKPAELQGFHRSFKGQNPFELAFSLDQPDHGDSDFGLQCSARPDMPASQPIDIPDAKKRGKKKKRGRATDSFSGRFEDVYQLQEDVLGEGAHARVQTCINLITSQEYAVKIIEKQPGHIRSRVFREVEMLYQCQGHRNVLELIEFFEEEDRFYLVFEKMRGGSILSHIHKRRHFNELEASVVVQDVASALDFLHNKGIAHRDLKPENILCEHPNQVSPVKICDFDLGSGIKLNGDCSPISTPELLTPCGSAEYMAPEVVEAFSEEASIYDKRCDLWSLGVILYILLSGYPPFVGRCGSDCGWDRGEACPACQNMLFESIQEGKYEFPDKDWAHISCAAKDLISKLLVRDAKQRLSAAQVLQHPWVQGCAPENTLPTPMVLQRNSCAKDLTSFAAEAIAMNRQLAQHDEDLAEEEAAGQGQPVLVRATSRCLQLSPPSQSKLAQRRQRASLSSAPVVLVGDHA
T30 sequence (P68400 whole entry): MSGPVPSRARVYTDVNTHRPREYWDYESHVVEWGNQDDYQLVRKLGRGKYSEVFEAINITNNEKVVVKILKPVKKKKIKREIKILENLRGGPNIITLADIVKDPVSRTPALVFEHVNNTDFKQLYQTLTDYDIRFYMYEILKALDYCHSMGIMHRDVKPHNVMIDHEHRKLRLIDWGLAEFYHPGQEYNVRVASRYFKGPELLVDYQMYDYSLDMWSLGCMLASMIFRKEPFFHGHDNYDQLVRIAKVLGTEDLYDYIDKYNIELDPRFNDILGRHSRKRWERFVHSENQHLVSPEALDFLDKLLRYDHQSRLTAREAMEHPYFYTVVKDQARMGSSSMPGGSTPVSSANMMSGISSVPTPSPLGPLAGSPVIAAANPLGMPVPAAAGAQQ
T29 sequence (Q02750 whole entry): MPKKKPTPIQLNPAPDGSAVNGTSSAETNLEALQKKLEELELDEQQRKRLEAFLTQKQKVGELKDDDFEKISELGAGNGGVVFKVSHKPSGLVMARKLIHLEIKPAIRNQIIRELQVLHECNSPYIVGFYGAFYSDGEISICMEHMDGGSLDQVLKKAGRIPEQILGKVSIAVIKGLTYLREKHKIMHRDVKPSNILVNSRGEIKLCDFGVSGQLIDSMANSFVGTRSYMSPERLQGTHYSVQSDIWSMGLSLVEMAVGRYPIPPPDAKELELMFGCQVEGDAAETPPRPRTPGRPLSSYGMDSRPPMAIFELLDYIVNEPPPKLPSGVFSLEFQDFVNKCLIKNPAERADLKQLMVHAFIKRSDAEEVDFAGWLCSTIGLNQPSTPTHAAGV
T16 sequence (O14733 whole entry): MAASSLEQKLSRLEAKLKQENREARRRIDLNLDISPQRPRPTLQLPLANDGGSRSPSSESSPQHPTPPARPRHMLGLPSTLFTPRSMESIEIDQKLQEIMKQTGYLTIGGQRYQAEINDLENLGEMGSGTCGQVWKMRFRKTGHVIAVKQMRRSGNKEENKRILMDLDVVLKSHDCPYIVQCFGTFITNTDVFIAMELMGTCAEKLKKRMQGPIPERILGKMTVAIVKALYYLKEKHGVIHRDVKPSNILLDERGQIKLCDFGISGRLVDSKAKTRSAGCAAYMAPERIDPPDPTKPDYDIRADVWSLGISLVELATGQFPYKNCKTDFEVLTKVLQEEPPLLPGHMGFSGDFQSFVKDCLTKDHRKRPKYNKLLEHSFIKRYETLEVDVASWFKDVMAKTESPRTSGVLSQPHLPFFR
T27 sequence (P51956 whole entry): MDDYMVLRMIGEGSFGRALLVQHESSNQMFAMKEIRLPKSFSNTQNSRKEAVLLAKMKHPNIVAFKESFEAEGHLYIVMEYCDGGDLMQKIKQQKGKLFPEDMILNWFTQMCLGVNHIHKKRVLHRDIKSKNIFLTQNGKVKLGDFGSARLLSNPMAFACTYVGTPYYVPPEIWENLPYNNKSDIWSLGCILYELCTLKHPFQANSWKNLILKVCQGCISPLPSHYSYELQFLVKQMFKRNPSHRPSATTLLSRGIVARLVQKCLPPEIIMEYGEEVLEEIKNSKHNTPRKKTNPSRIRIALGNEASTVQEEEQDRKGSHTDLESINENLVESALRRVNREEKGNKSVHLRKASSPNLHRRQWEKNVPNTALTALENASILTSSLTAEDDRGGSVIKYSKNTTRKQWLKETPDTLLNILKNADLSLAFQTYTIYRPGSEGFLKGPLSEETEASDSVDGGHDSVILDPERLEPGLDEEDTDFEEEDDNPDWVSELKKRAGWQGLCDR
T8 sequence (Q08345 19-913): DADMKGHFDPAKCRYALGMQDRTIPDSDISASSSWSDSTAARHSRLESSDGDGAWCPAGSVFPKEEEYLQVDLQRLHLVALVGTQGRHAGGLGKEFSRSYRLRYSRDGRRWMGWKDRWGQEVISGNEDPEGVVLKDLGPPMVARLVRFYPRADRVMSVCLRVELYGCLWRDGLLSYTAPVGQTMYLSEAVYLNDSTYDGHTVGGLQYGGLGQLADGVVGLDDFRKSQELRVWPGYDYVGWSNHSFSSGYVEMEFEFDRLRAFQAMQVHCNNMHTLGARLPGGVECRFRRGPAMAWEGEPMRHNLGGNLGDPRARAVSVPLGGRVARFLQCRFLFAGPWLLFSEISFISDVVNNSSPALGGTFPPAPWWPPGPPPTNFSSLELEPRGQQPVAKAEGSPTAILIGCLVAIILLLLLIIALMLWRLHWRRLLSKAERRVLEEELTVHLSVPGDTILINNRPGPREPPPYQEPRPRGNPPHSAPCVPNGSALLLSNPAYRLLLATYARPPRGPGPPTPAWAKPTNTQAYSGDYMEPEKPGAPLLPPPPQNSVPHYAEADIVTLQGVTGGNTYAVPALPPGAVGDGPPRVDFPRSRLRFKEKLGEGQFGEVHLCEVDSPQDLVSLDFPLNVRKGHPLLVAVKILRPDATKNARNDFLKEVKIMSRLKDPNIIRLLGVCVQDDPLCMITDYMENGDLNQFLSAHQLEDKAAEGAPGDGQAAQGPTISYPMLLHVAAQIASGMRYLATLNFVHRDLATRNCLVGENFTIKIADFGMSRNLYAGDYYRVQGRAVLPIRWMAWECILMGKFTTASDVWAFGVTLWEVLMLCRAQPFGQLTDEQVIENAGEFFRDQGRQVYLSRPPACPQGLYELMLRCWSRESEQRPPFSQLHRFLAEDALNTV

## Cc1cnc(N[C@H]2CC[C@H](N)CC2)nc1-c1cnc2ccc(-c3ccccc3)cn12 [CDDD11-8]
BRAF
  remaining activity at 1 µM: 99.7%
MNK2
  remaining activity at 1 µM: 83.5%
RSK3
  remaining activity at 1 µM: 45.6%
OSR1/OXSR1
  remaining activity at 1 µM: 101%
IKKb/IKBKB
  remaining activity at 1 µM: 78.1%
SRMS
  remaining activity at 1 µM: 101%
WNK2
  remaining activity at 1 µM: 94.5%
DDR1
  remaining activity at 1 µM: 63.1%
GRK4
  remaining activity at 1 µM: 98.2%
p70S6K/RPS6KB1
  remaining activity at 1 µM: 94.5%
MEKK1
  remaining activity at 1 µM: 103%
AKT2
  remaining activity at 1 µM: 116%
DCAMKL1
  remaining activity at 1 µM: 113%
FGR
  remaining activity at 1 µM: 73.4%
CSK
  remaining activity at 1 µM: 91.2%
MKK7
  remaining activity at 1 µM: 95.4%
FAK/PTK2
  remaining activity at 1 µM: 63.3%
ULK2
  remaining activity at 1 µM: 113%
MLK3/MAP3K11
  remaining activity at 1 µM: 45.1%
PAK2
  remaining activity at 1 µM: 96.7%
c-Kit
  remaining activity at 1 µM: 97.5%
TBK1
  remaining activity at 1 µM: 94.6%
DAPK1
  remaining activity at 1 µM: 96.1%
TYRO3/SKY
  remaining activity at 1 µM: 82.2%
MKK6
  remaining activity at 1 µM: 95.7%
PKN3/PRK3
  remaining activity at 1 µM: 81%
NEK3
  remaining activity at 1 µM: 92.8%
CK2a2
  remaining activity at 1 µM: 74.7%
MEK1
  remaining activity at 1 µM: 98.9%
CK2a
  remaining activity at 1 µM: 80.3%
